Experiments:
oilseed rape = assay: Test C postemergence; format: in vivo, Brassica napus
Procedure, shortened: (§1)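 Visual ratings on a 0–100 scale (100 = complete control) were made versus untreated controls after 13–15 greenhouse days. Chemicals in a surfactant-containing non-phytotoxic solvent were applied either preemergence to seeds in loam–sand soil or postemergence to 1- to 4-leaf plants 2–18 cm tall.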

pigweed = assay: Test C preemergence; format: in vivo, Amaranthus retroflexus; details: preemergence
Procedure, shortened: as §1

galium = assay: Test C postemergence; format: in vivo, Galium aparine
Procedure, shortened: as §1

wheat, winter = assay: Test C postemergence; format: in vivo, Triticum aestivum
Procedure, shortened: as §1

velvetleaf [1] = assay: Test C preemergence; format: in vivo, Abutilon theophrasti; details: preemergence
Procedure, shortened: as §1

barnyardgrass = assay: Test C postemergence; format: in vivo, Echinochloa crus-galli
Procedure, shortened: as §1

blackgrass = assay: Test C preemergence; format: in vivo, Alopecurus myosuroides
Procedure, shortened: as §1

velvetleaf [2] = assay: Test C postemergence; format: in vivo, Abutilon theophrasti
Procedure, shortened: as §1

Italian ryegrass = assay: Test C postemergence; format: in vivo, Lolium multiflorum
Procedure, shortened: as §1

wheat = assay: Test A postemergence; format: in vivo, Triticum aestivum; details: 0 to 100 scale where 0 is no effect and 100 is complete control
Procedure, shortened: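 Visual 0–100 rating (100 = complete control) taken about 10 d post-treatment relative to untreated checks. Preemergence: directed soil spray on sown loam/sand pots. Postemergence: seedlings 2–10 cm, 1–2 leaf. Non-phytotoxic solvent formulation with surfactant.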

sedge, umbrella = assay: Test B flooded paddy test; format: in vivo, Cyperus difformis; details: Flood, 250 g ai/ha, 0 to 100 scale where 0 is no effect and 100 is complete control
Procedure, shortened: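 Compound added straight to paddy water, with pots kept flooded 3 cm above soil, on plants grown to the 2-leaf stage. Visual scoring 0-100 (100 = complete control) against untreated controls after 13 to 15 greenhouse days.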

corn = assay: Test C preemergence; format: in vivo, Zea mays
Procedure, shortened: as §1

lambsquarters = assay: Test C postemergence; format: in vivo, Chenopodium album
Procedure, shortened: as §1

[3] = 16 g ai/ha, postemergence, 0 is no effect, 100 is complete control
[4] = 31 g ai/ha, postemergence, visual rating, scale 0 to 100 (0 no effect, 100 complete control), 13 to 15 days
[5] = 125 g ai/ha, postemergence, visual rating, scale 0 to 100 (0 no effect, 100 complete control)
[6] = Postemergence, 62 g ai/ha, scale 0 to 100 (0 no effect, 100 complete control)
[7] = 16 g ai/ha, scale 0 to 100 (0 no effect, 100 complete control)
[8] = 62 g ai/ha, scale 0 (no effect) to 100 (complete control)
[9] = 125 g ai/ha, scale 0 (no effect) to 100 (complete control)
[10] = 16 g ai/ha, preemergence, scale 0 to 100 (0 no effect, 100 complete control)
[11] = 62 g ai/ha, preemergence, scale 0 (no effect) to 100 (complete control)
[12] = 125 g ai/ha, preemergence, scale 0 (no effect) to 100 (complete control)
[13] = Preemergence, 31 g ai/ha, scale 0 to 100, 0 no effect, 100 complete control

## FC(F)(F)COc1cnn(-c2ccccc2Oc2ncc(Cl)cn2)c1 [Compound 138, 5-chloro-2-[2-[4-(2,2,2-trifluoroethoxy)-1H-pyrazol-1-yl]phenoxy]pyrimidine]
Oilseed rape; Brassica napus, post-emergence, 16 g ai/ha, postemergence, 0 is no effect, 100 is complete control, read-out: Plant response rating (0 to 100), Oilseed Rape
  plant injury at 16 g/ha: 5%
Oilseed rape; Brassica napus, post-emergence, 125 g ai/ha, postemergence, visual rating, scale 0 to 100 (0 no effect, 100 complete control), read-out: Plant response rating, Oilseed Rape
  plant injury at 125 g/ha: 80%
Oilseed rape; Brassica napus, post-emergence, Postemergence, 62 g ai/ha, scale 0 to 100 (0 no effect, 100 complete control), read-out: Plant response rating, Oilseed Rape
  plant injury at 62 g/ha: 60%
pigweed; Amaranthus retroflexus, pre-emergence, 16 g ai/ha, scale 0 to 100 (0 no effect, 100 complete control), read-out: Pigweed plant response rating
  pest or weed control at 16 g/ha: 85%
pigweed; Amaranthus retroflexus, pre-emergence, 62 g ai/ha, scale 0 (no effect) to 100 (complete control), read-out: Pigweed plant response rating
  pest or weed control at 62 g/ha: 100%
pigweed; Amaranthus retroflexus, pre-emergence, 125 g ai/ha, scale 0 (no effect) to 100 (complete control), read-out: Pigweed plant response rating
  pest or weed control at 125 g/ha: 100%
galium; Galium, post-emergence, 16 g ai/ha, postemergence, 0 is no effect, 100 is complete control, read-out: Plant response rating (0 to 100), Galium
  pest or weed control at 16 g/ha: 50%
galium; Galium, post-emergence, 125 g ai/ha, postemergence, visual rating, scale 0 to 100 (0 no effect, 100 complete control), read-out: Plant response rating, Galium
  pest or weed control at 125 g/ha: 85%
galium; Galium, post-emergence, Postemergence, 62 g ai/ha, scale 0 to 100 (0 no effect, 100 complete control), read-out: Plant response rating, Galium
  pest or weed control at 62 g/ha: 65%
wheat, winter; Triticum aestivum, post-emergence, 16 g ai/ha, postemergence, 0 is no effect, 100 is complete control, read-out: Plant response rating (0 to 100), Wheat
  plant injury at 16 g/ha: 0%
wheat, winter; Triticum aestivum, post-emergence, 125 g ai/ha, postemergence, visual rating, scale 0 to 100 (0 no effect, 100 complete control), read-out: Plant response rating, Wheat
  plant injury at 125 g/ha: 5%
wheat, winter; Triticum aestivum, post-emergence, Postemergence, 62 g ai/ha, scale 0 to 100 (0 no effect, 100 complete control), read-out: Plant response rating, Wheat
  plant injury at 62 g/ha: 0%
Velvetleaf [1]; Abutilon theophrasti, pre-emergence, 16 g ai/ha, scale 0 to 100 (0 no effect, 100 complete control), read-out: Velvetleaf plant response rating
  pest or weed control at 16 g/ha: 60%
Velvetleaf [1]; Abutilon theophrasti, pre-emergence, 62 g ai/ha, scale 0 (no effect) to 100 (complete control), read-out: Velvetleaf plant response rating
  pest or weed control at 62 g/ha: 98%
Velvetleaf [1]; Abutilon theophrasti, pre-emergence, 125 g ai/ha, scale 0 (no effect) to 100 (complete control), read-out: Velvetleaf plant response rating
  pest or weed control at 125 g/ha: 100%
barnyardgrass; Echinochloa crus-galli, post-emergence, 16 g ai/ha, postemergence, 0 is no effect, 100 is complete control, read-out: Plant response rating (0 to 100), Barnyardgrass
  pest or weed control at 16 g/ha: 5%
barnyardgrass; Echinochloa crus-galli, post-emergence, 125 g ai/ha, postemergence, visual rating, scale 0 to 100 (0 no effect, 100 complete control), read-out: Plant response rating, Barnyardgrass
  pest or weed control at 125 g/ha: 5%
barnyardgrass; Echinochloa crus-galli, post-emergence, Postemergence, 31 g ai/ha, scale 0 to 100 (0 no effect, 100 complete control), 13 to 15 days, read-out: Plant response rating, Barnyardgrass
  pest or weed control at 31 g/ha: 5%
barnyardgrass; Echinochloa crus-galli, post-emergence, Postemergence, 62 g ai/ha, scale 0 to 100 (0 no effect, 100 complete control), read-out: Plant response rating, Barnyardgrass
  pest or weed control at 62 g/ha: 5%
blackgrass; Alopecurus myosuroides, pre-emergence, 16 g ai/ha, preemergence, scale 0 to 100 (0 no effect, 100 complete control), read-out: Blackgrass plant response rating
  pest or weed control at 16 g/ha: 5%
blackgrass; Alopecurus myosuroides, pre-emergence, 62 g ai/ha, preemergence, scale 0 (no effect) to 100 (complete control), read-out: Blackgrass plant response rating
  pest or weed control at 62 g/ha: 80%
blackgrass; Alopecurus myosuroides, pre-emergence, 125 g ai/ha, preemergence, scale 0 (no effect) to 100 (complete control), read-out: Blackgrass plant response rating
  pest or weed control at 125 g/ha: 90%
blackgrass; Alopecurus myosuroides, pre-emergence, Preemergence, 31 g ai/ha, scale 0 to 100, 0 no effect, 100 complete control, read-out: Plant response rating, Blackgrass
  pest or weed control at 31 g/ha: 20%
Velvetleaf [2]; Abutilon theophrasti, post-emergence, 16 g ai/ha, postemergence, 0 is no effect, 100 is complete control, read-out: Plant response rating (0 to 100), Velvetleaf
  pest or weed control at 16 g/ha: 30%
Velvetleaf [2]; Abutilon theophrasti, post-emergence, 125 g ai/ha, postemergence, visual rating, scale 0 to 100 (0 no effect, 100 complete control), read-out: Plant response rating, Velvetleaf
  pest or weed control at 125 g/ha: 55%
Velvetleaf [2]; Abutilon theophrasti, post-emergence, Postemergence, 62 g ai/ha, scale 0 to 100 (0 no effect, 100 complete control), read-out: Plant response rating, Velvetleaf
  pest or weed control at 62 g/ha: 20%
Italian ryegrass; Lolium multiflorum, post-emergence, 16 g ai/ha, postemergence, 0 is no effect, 100 is complete control, read-out: Plant response rating (0 to 100), Ryegrass, Italian
  pest or weed control at 16 g/ha: 0%
Italian ryegrass; Lolium multiflorum, post-emergence, 125 g ai/ha, postemergence, visual rating, scale 0 to 100 (0 no effect, 100 complete control), read-out: Plant response rating, Ryegrass, Italian
  pest or weed control at 125 g/ha: 5%
Italian ryegrass; Lolium multiflorum, post-emergence, Postemergence, 62 g ai/ha, scale 0 to 100 (0 no effect, 100 complete control), read-out: Plant response rating, Ryegrass, Italian
  pest or weed control at 62 g/ha: 0%
wheat; Triticum aestivum, post-emergence, 240 h, 125 g ai/ha, read-out: Wheat plant response rating
  plant injury at 125 g/ha: 50%
wheat; Triticum aestivum, post-emergence, 240 h, 500 g ai/ha, read-out: Plant response rating, Wheat
  plant injury at 500 g/ha: 90%
sedge, umbrella; Cyperus difformis, read-out: Plant response rating, Sedge, Umbrella
  pest or weed control at 250 g/ha: 75%
corn; Zea mays, pre-emergence, 16 g ai/ha, preemergence, scale 0 to 100 (0 no effect, 100 complete control), read-out: Corn plant response rating
  plant injury at 16 g/ha: 0%
corn; Zea mays, pre-emergence, 62 g ai/ha, preemergence, scale 0 (no effect) to 100 (complete control), read-out: Corn plant response rating
  plant injury at 62 g/ha: 0%
corn; Zea mays, pre-emergence, 125 g ai/ha, preemergence, scale 0 (no effect) to 100 (complete control), read-out: Corn plant response rating
  plant injury at 125 g/ha: 25%
corn; Zea mays, pre-emergence, Preemergence, 31 g ai/ha, scale 0 to 100, 0 no effect, 100 complete control
  Corn plant response rating (crop injury, 0 = no effect, 100 = complete kill) at 31 g/ha: 0%
lambsquarters; Chenopodium album, post-emergence, 16 g ai/ha, postemergence, 0 is no effect, 100 is complete control, read-out: Plant response rating (0 to 100), Lambsquarters
  pest or weed control at 16 g/ha: 20%
lambsquarters; Chenopodium album, post-emergence, 125 g ai/ha, postemergence, visual rating, scale 0 to 100 (0 no effect, 100 complete control), read-out: Plant response rating, Lambsquarters
  pest or weed control at 125 g/ha: 75%
lambsquarters; Chenopodium album, post-emergence, Postemergence, 62 g ai/ha, scale 0 to 100 (0 no effect, 100 complete control), read-out: Plant response rating, Lambsquarters
  pest or weed control at 62 g/ha: 60%

## CCCOc1cnn(-c2c(C#N)cccc2Oc2ncc(Cl)cn2)c1 [Compound 150]
Oilseed rape; [3]
  Plant response rating (0 to 100), Oilseed Rape: 5
Oilseed rape; [4]
  Oilseed Rape plant response rating: 40
Oilseed rape; [5]
  Plant response rating, Oilseed Rape: 50
Oilseed rape; [6]
  Plant response rating, Oilseed Rape: 45
pigweed; [7]
  Pigweed plant response rating: 55
pigweed; [8]
  Pigweed plant response rating: 100
pigweed; [9]
  Pigweed plant response rating: 100
galium; [3]
  Plant response rating (0 to 100), Galium: 60
galium; [4]
  Galium plant response rating: 65
galium; [5]
  Plant response rating, Galium: 80
galium; [6]
  Plant response rating, Galium: 75
wheat, winter; [3]
  Plant response rating (0 to 100), Wheat: 5
wheat, winter; [4]
  Wheat plant response rating: 5
wheat, winter; [5]
  Plant response rating, Wheat: 25
wheat, winter; [6]
  Plant response rating, Wheat: 5
Velvetleaf [1]; [7]
  Velvetleaf plant response rating: 5
Velvetleaf [1]; [8]
  Velvetleaf plant response rating: 60
Velvetleaf [1]; [9]
  Velvetleaf plant response rating: 70
barnyardgrass; [3]
  Plant response rating (0 to 100), Barnyardgrass: 5
barnyardgrass; [4]
  Barnyardgrass plant response rating: 5
barnyardgrass; [5]
  Plant response rating, Barnyardgrass: 5
barnyardgrass; [6]
  Plant response rating, Barnyardgrass: 5
blackgrass; [10]
  Blackgrass plant response rating: 0
blackgrass; [11]
  Blackgrass plant response rating: 50
blackgrass; [12]
  Blackgrass plant response rating: 50
blackgrass; [13]
  Plant response rating, Blackgrass: 10
Velvetleaf [2]; [3]
  Plant response rating (0 to 100), Velvetleaf: 20
Velvetleaf [2]; [4]
  Velvetleaf plant response rating: 25
Velvetleaf [2]; [5]
  Plant response rating, Velvetleaf: 30
Velvetleaf [2]; [6]
  Plant response rating, Velvetleaf: 30
Italian ryegrass; [3]
  Plant response rating (0 to 100), Ryegrass, Italian: 0
Italian ryegrass; [4]
  Ryegrass, Italian plant response rating: 0
Italian ryegrass; [5]
  Plant response rating, Ryegrass, Italian: 5
Italian ryegrass; [6]
  Plant response rating, Ryegrass, Italian: 5
wheat; 125 g ai/ha
  Wheat plant response rating: 30
wheat; 500 g ai/ha
  Plant response rating, Wheat: 90
sedge, umbrella
  Plant response rating, Sedge, Umbrella: 85
corn; [10]
  Corn plant response rating: 0
corn; [11]
  Corn plant response rating: 25
corn; [12]
  Corn plant response rating: 45
corn; [13]
  Plant response rating, Corn: 0
lambsquarters; [3]
  Plant response rating (0 to 100), Lambsquarters: 10
lambsquarters; [4]
  Lambsquarters plant response rating: 30
lambsquarters; [5]
  Plant response rating, Lambsquarters: 80
lambsquarters; [6]
  Plant response rating, Lambsquarters: 35
